Test results: US9173935B2, “Phospholipid drug analogs” (Telormedix SA, priority 2010, dated 2015)
Like-named read-outs stand apart in the source and are kept apart here.

How the values were obtained:
[1] = Storage stability by HPLC (solid or chloroform solution; temperature, light); format: physicochemical
Method: At this point, a stability study was conducted on batch CH730/16/8g.
The samples were analyzed at t=0 and after 20 days.

[2] = test system: Raw264.7 mouse macrophage cell line; test: IL-6 and TNF-alpha secretion in Raw264.7 cells (ELISA); format: cell-based; conditions: 24 hours treatment, 7 doses
Method: EC50 values were determined for control and each drug candidate for IL-6 and TNF-alpha secretion. […] The cells were plated in 96 well plates and treated with TLR7 agonists for 24 hours in 7 doses. The conditioned media was removed after 24 hours for ELISA analyses. The cells were subsequently assayed for viability using the XTT assay according to the guidelines from the supplier. […] The experiment was performed in quadruplicate wells for each testing series, and the supernatant pooled and measured by ELISA in triplicates. Concentrations of IL-6 and TNF-alpha were determined by ELISA from R&D Systems using the Microsoft Excel Software. The results were analyzed in Graph Pad Prism in order to prepare dose-response curves, and for determination of EC50 values.

human PBMCs = test: IL-6 secretion in human PBMCs, two batches of Compound A and SC12; format: cell-based; conditions: 24 h, 4 doses
Method: PBMCs were purified from two donors and plated into 96 well plates at 2×10^5 cells/well in RPMI media including human 2% heat inactivated AB serum, glutamine, Pen-strep and R-mercapto-ethanol. The cells were treated with TLR7 agonists for 24 h in 4 doses. The conditioned media was removed for ELISA analyses for IL-6, and the EC50 value determined for each compound and each batch.
All compounds were tested in four concentrations (10-1-0.1-0.01 micromolar).
Concentrations of IL-6 were determined by ELISA from R&D Systems using the Microsoft Excel software. The results were analyzed in Graph Pad Prism in order to prepare dose-response curves, and for determination of EC50 values.

whole blood = test: Cytokine secretion in human whole blood assay (ELISA); format: cell-based
Method: A volume of approximately 55 mL fresh whole blood was drawn in heparinized Vacutainers from three healthy adult anonymous volunteers as described (J. A. Ida, Journal of Immunol Methods, 310, 2006, 86-99). […] Before drawing the blood, the compounds were added to 96 well round bottom plates in a 10× diluted sample at 20 ul. The compounds were diluted in RPMI media without serum but with antibiotics. Antibiotics were added at a 10× concentration. After drawing the blood, the whole blood sample was gently mixed to obtain a homogeneous sample, and 180 ul was added to each well.
After 6 hours and 24 hours incubation, plasma was removed for ELISA (IL-6, IL-10, IL-12p40 and IFN-alpha). ELISA was made at the 6 and 24 hours time point for all concentrations. After 24 hours incubation with selected compound concentrations, cells were analyzed for activation markers by FACS.
All compounds were setup in concentrations at 0-0.01-0.03-0.1-0.5-2.0-10.0 micromolar as the final concentration. Vehicle control was DMSO control, where we used the highest concentration used for the compounds. After addition of blood, all plates were gently agitated at 37° C. and 5% CO2 until harvest. The samples were removed after 6 or 24 hours incubation, and pooled into appropriate tubes (2 ml).
Concentrations of cytokines were determined by ELISA from R&D Systems. The results were analyzed in Graph Pad Prism in order to prepare dose-response
curves, and for determination of EC50 values. FACS analysis was made by using Becton-Dickinson FACSDiva software and subsequently illustrated in Graph Pad Prism.

[3] = test system: HLA-DR+/CD11c-/CD123+ pDCs; test: FACS analysis of plasmacytoid DC activation in whole blood; format: cell-based, human; conditions: 24 hours, 0.1 and 0.5 uM, three donors
Method: A flow cytometric analysis was performed on whole blood from three donors after treatment with two compound concentrations for 24 h. The FACS analysis for donor 1 and donor 2 was made on another day than donor 3. The compound concentrations were as follows:
The FACS analysis was used to identify whether the test compounds could induce activation of B cells, and two different subsets of dendritic cells, namely the myeloid CD11c+/CD123− DCs and the plasmacytoid CD11c−/CD123+ DCs. The following markers were studied to identify the activation status of the different subsets:
The FACS staining was performed according to the manufacturer's instructions. Lysis of red blood cells was performed before FACS staining in order to minimize auto-florescence. To include as many B cells and DCs in the study as possible the FACS analyses were performed on 500,000 cells in total for each staining. A P1 gate was set only to include relevant cells on FSC vs. SSC (see FIGS. 12-15). The results of the individual analysis were present as Mean Fluorescence Intensity
The analysis of pDCs was based on HLA-DR+/CD11c−/CD123+ cells, thus all analyzed cells were included in the HLA-DR+ (P3) gate and CD11c−/CD123+(Q1) gate. (FIGS. 13-15).

[4] = test system: receptors associated with pain-related syndromes (e.g. adenosine and sodium channel); test: Radioligand binding assay among 73 primary molecular targets; conditions: SC12 at fixed concentration of 30 microM
CYP2C19 = CYP2C19 (Homo sapiens (Human), UniProt P33261); test: Fluorescent High Throughput P450 assay, CYP2C19; format: biochemical; conditions: substrate CEC; read-out: CYP2C19 IC50 (Mean ± S.D.)
Method: (§1) Inhibition of the P450 isoforms was measured in specific assays using specific substrates that become fluorescent upon CYP metabolism. Compounds, dissolved in ACN (acetonitrile) (CYP2E1, CYP2C8, CYP2B6, CYP3A5) or DMSO (all remaining isoforms), were tested in duplicate (n=2) in concentration-response curves (eight concentrations) in a 96-well plate containing incubation/NADPH regenerating buffer. Specific isoenzymes and substrates were added and incubated at 37° C. Reactions were terminated at different times, depending on the assays, and plates read on a Fluoroskan Ascent at the appropriate emission/excitation wavelengths. Concentration-response curves performed in duplicate for known inhibitors for each isoenzyme were tested in every assay as positive control.

CYP3A4 = CYP3A4 (Homo sapiens (Human), UniProt P08684); test: Fluorescent High Throughput P450 assay, CYP3A4; format: biochemical; conditions: substrate BFC; read-out: CYP3A4 IC50 (Mean ± S.D.)
Method: as §1

[5] = test system: recombinant protein antigens from Plasmodium falciparum and Mycobacterium ulcerans; test: Pilot immunization study with adjuvanted protein antigens; format: in vivo, mice; conditions: three s.c. immunizations
Method: A pilot immunization study was conducted using Compound A and SC12 adjuvanted protein antigens. The immunization experiments were performed with two recombinant proteins expressed in E. coli. One antigen was derived from the malaria parasite Plasmodium falciparum and the other one from Mycobacterium ulcerans, which cause the ulcerative skin disease Buruli ulcer.

Chain of CYP3A4 (P08684 whole entry, looked up): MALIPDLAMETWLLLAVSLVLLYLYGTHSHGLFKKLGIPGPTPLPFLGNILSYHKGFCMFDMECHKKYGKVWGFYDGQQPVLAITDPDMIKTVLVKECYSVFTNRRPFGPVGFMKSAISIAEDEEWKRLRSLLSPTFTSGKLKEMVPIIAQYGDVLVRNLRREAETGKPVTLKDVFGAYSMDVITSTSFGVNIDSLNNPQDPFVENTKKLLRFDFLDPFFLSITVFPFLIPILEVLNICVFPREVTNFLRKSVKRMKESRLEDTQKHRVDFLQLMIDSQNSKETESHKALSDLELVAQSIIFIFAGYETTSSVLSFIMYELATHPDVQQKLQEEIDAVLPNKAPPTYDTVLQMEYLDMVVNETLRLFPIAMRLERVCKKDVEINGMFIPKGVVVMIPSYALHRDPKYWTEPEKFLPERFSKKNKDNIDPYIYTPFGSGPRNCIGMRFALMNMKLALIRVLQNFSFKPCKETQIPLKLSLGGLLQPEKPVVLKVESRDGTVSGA
Chain of CYP2C19 (P33261 whole entry, looked up): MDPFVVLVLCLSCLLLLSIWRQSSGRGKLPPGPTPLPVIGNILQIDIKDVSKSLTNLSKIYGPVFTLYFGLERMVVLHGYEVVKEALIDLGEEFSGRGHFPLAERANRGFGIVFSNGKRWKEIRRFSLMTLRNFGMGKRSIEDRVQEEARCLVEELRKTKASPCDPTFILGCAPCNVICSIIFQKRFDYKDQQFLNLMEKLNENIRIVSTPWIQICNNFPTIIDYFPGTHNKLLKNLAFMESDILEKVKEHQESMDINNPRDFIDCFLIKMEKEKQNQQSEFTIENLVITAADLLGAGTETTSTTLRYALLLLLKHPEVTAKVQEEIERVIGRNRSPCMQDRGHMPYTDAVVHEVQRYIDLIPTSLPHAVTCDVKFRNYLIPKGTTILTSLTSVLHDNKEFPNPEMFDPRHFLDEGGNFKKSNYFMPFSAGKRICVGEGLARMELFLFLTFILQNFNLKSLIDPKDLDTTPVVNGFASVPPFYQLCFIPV

CCCCCCCCCCCC(=O)OCC(COP(=O)(O)OCCNC(=O)c1ccc(Cn2c(=O)[nH]c3c(N)nc(OCCOC)nc32)cc1)OC(=O)CCCCCCCCCCC (centres unmarked) [SC12]
HPLC RRT = 1 ([1]; Solid, RT and light, t = 20 days): RRT = 1: 87.8% | HPLC RRT = 1 ([1]; Solid, external T and light, t = 20 days): RRT = 1: 84.0% | HPLC RRT = 1 ([1]; Solution in CHCl3, RT and light, t = 20 days): RRT = 1: 88.0% | HPLC RRT = 1 ([1]; t = 0): RRT = 1: 90.3% | EC50 ([2]; read-out: EC 50 IL 6): 42 nM | EC50 ([2]; read-out: EC 50 TNF-alpha): 41 nM | EC50 (human PBMCs; Donor 1, listed as SC12 new 20288): 1870 nM | EC50 (human PBMCs; Donor 1, listed as SC12 old CH730/2/13D): 2010 nM | EC50 (human PBMCs; Donor 2, listed as SC12 new 20288): 947 nM | EC50 (human PBMCs; Donor 2, listed as SC12 old CH730/2/13D): 1030 nM | IL-10 production (whole blood; 6 hours incubation): no IL-10 production was seen | EC50 (whole blood; Donor 1, read-out: EC50-IFN-alpha, 24 h Incubation): 200 nM | EC50 (whole blood; Donor 1, read-out: EC50-IL-6, 24 h Incubation): 220 nM | EC50 (whole blood; Donor 1, read-out: EC50-IL-10, 24 h Incubation): 1340 nM | EC50 (whole blood; Donor 1, read-out: EC50-IL-12p40, 24 h Incubation): 4100 nM | EC50 (whole blood; Donor 2, read-out: EC50-IFN-alpha, 24 h Incubation): 110 nM | EC50 (whole blood; Donor 2, read-out: EC50-IL-6, 24 h Incubation): 60 nM | EC50 (whole blood; Donor 2, read-out: EC50-IL-10, 24 h Incubation): 410 nM | EC50 (whole blood; Donor 2, read-out: EC50-IL-12p40, 24 h Incubation): 1420 nM | EC50 (whole blood; Donor 3, read-out: EC50-IFN-alpha, 24 h Incubation): 240 nM | EC50 (whole blood; Donor 3, read-out: EC50-IL-6, 24 h Incubation): 170 nM | EC50 (whole blood; Donor 3, read-out: EC50-IL-10, 24 h Incubation): 9000 nM | EC50 (whole blood; Donor 3, read-out: EC50-IL-12p40, 24 h Incubation): 14200 nM | EC50 (whole blood; read-out: EC50-IFN-alpha, 6 h Incubation, Donor 1): 980 nM | EC50 (whole blood; read-out: EC50-IFN-alpha, 6 h Incubation, Donor 2): 830 nM | EC50 (whole blood; read-out: EC50-IFN-alpha, 6 h Incubation, Donor 3): 1660 nM | EC50 (whole blood; read-out: EC50-IL-6, 6 h Incubation, Donor 1): 570 nM | EC50 (whole blood; read-out: EC50-IL-6, 6 h Incubation, Donor 2): 180 nM | EC50 (whole blood; read-out: EC50-IL-6, 6 h Incubation, Donor 3): 370 nM | EC50 (whole blood; read-out: EC50-IL-12, 6 h Incubation (IL-12p40), Donor 2): 2360 nM | EC50 (whole blood; read-out: EC50-IL-12, 6 h Incubation (IL-12p40), Donor 3): 3560 nM | CD80 expression on pDCs [3]: induces a slightly higher CD80 expression than compound A | CD86 expression on pDCs [3]: tendency to induce higher CD86 expression than compound A | Binding to receptors associated with pain-related syndromes [4]: did not bind | IC50 (CYP2C19): > 100000 nM | IC50 (CYP3A4): 13600 ± 700 nM | Local side effects (swelling, ulcerations) ([5]; 10 nMol adjuvant): No local side effects | IgG responses against target antigens ([5]; 20 micrograms antigen with 10 nMol adjuvant): all 20 immunized mice had developed IgG responses
